Experimental data published in patent US7422846B2, “Natural ligand for orphan G protein coupled receptor GPR86 and methods of use” (Euroscreen S.A, priority 2001, dated 2008).

Molecular target: T1, GPR86 (P2Y13) human receptor (Homo sapiens, UniProt Q9BPV8, T179M)
T1 sequence (Q9BPV8 22-354 T179M): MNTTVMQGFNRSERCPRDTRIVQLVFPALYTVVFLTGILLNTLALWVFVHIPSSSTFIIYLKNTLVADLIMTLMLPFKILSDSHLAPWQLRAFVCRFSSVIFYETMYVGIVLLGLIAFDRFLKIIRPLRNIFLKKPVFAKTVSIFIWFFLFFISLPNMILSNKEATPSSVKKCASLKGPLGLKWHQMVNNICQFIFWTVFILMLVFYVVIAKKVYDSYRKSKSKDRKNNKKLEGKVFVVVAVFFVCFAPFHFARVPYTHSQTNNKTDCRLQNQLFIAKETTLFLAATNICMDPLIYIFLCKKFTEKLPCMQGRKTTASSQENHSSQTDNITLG
Assay: cAMP accumulation in CHO-K1 cells expressing GPR86 in the presence of forskolin
Type: cell-based
Parameters: expressed in transfected cells; host or cells: 1321N1 astrocytoma clone AG32 (stably expressing Gα16 from pERAEQ2), G418-selected
Conditions: forskolin 4 μM
Description: Secondary messenger assays, amenable to high throughput screening analysis, are performed including but not limited to the measurement of intracellular levels of cAMP, intracellular inositol phosphate, intracellular diacylglycerol concentrations, arachinoid acid concentration or MAP kinase or tyrosine kinase activity (as decribed above). For example, the GPR86 activity, as measured in a cyclic AMP assay, is quantified by a radioimmunoassay as previously described (26). Results are compared to the baseline level of GPR86 activity obtained from recombinant cells according to the invention in the presence of ADP but in the absence of added modulator compound. Wells showing at least 2 fold, preferably 5 fold, more preferably 10 fold and most preferably a 100 fold or more increase or decrease in GPR86 activity as compared to the level of activity in the absence of modulator, are selected for further analysis.
The potential effect of nucleotides was tested on the cAMP pathway in CHO-K1 cells expressing the human GPR86 receptor. […] CHO-K1 transfected cells were incubated in the presence of various concentrations of ADP and 4 μM forskolin for 10 min. The data represent the mean±S.D. of triplicate experimental points obtained in one representative experiment of three and 2MeSADP in the presence of forskolin 4 μM. […] CHO-K1 transfected cells were incubated in the presence of various concentrations of ADP an 4 μM forskolin for 10 minutes. The data represent the mean+/−S.D. of triplicate experimental points obtained in one representative experiment of three. CHO-K1 transfected cells were pre-incubated with or without 100 ng/ml pertussis toxin for 18 h and then incubated in the presence of ADP (100 nM and 100 μM) or water (CONT) and 4 μM forskolin for 10 min. The data represent the mean±S.D. of triplicate experimental points obtained in one representative experiment of two. The biphasic effect of ADP on adenylyl cyclase has been reproduced in 1321N1 cells transfected with the human GPR86 receptor.

Row | SMILES | effect on adenylyl cyclase / cAMP at high concentration (10 μM) | effect on cAMP level after pertussis toxin pretreatment (ADP 100 nM and 100 μM, 18 h pretreatment with 100 ng/ml pertussis toxin) | maximal inhibition percentage of cAMP (at 30 nM) [%] | effect on cAMP level at low concentrations | IC50 (10 min, mean±S.D. of three independent experiments, read-out: IC50, inhibition of cAMP level) [nM]
1 | Nc1ncnc2c1ncn2[C@@H]1O[C@H](COP(=O)(O)OP(=O)(O)O)[C@@H](O)[C@H]1O [ADP] | small increase | significant increases of the cAMP level | 52±7 | Significant inhibitions of the cAMP level | 1.5 ± 0.6
2 | CSc1nc(N)c2ncn([C@@H]3O[C@H](COP(=O)(O)OP(=O)(O)O)[C@@H](O)[C@H]3O)c2n1 [2MeSADP, 2-methylthio-ADP] | – | – | – | Significant inhibitions of the cAMP level | –
